Assay results from ChEMBL document CHEMBL3352057, “Novel fluorinated pyrrolo[1,2-a]pyrazine-2,6-dione derivatives: synthesis and anticonvulsant evaluation in animal models of epilepsy” (Bioorg Med Chem, 2014).

How the values were obtained:
Mus musculus [1] = assay: Anticonvulsant activity in ip dosed albino CF1 mouse assessed as protection against maximal electroshock-induced seizures measured as time to peak effect; format: functional
Mus musculus [2] = assay: Anticonvulsant activity in ip dosed albino CF1 mouse assessed as protection against subcutaneous metrazol-induced seizures; format: functional
[3] = Neurotoxicity in ip dosed albino CF1 mouse; format: toxicity, organism-based; settings: in vivo
Rattus norvegicus [4] = assay: Anticonvulsant activity in ip dosed hippocampal kindled albino Sprague-Dawley rat seizure model; format: functional; settings: Hippocampus
Rattus norvegicus [5] = assay: Anticonvulsant activity in ip dosed hippocampal kindled albino Sprague-Dawley rat seizure model assessed as time of rest; format: functional, Hippocampus
Mus musculus [6] = assay: Anticonvulsant activity in ip dosed albino CF1 mouse assessed as protection against maximal electroshock-induced seizures; format: functional

## COC[C@@H](NC(C)=O)C(=O)NCc1ccccc1 [LACOSAMIDE]
Mus musculus [1]
  Time: 0.5 h
Mus musculus [2]
  ED50: > 100 µmol/kg
[3]
  TD50: 107 µmol/kg
Rattus norvegicus [4]
  ED50: 56 µmol/kg
Rattus norvegicus [5]
  Time: 0.25 h
Mus musculus [6]
  ED50: 18 µmol/kg
